This is an account of results in patent US20250281523A1, “SULFATED GLYCOSAMINOGLYCAN COMPOUNDS, METHODS, AND USES THEREOF” (California Institute of Technology, priority 2024, published 2025).

For one test, the target named is T1, FGF2 (Homo sapiens, UniProt P09038).
T1 construct: purchased Sino Biological
Description: HS tetrasaccharide microarray binding assay, FGF2. To be noted: glycan microarray; for relative binding of FGF2: compound 50 μM, normalized to the compound with greatest binding. As for the experimental part:
(§1) Heparan sulfate tetrasaccharide microarray fabrication. HS oligosaccharides were dissolved in sodium phosphate buffer (pH 8.5, 50 mM) in 9 concentrations: 200 μM, 100 μM, 50 μM, 25 μM, 12.5 μM, 6.25 μM, 3.13 μM, 1.57 μM, 0.79 μM. The robotic arrayer SX (from Scienion, Berlin, Germany) delivered 414 pL of the solution containing oligosaccharides (9 spots per concentration) to the array slides using dispensing nozzle PDC80, P-2040, under ˜50% relative humidity at 20° C. […] The slides were incubated in a chamber with saturated (NH4)2SO4 solution (81% relative humidity) for 24 h at 20° C., and unreacted HS oligosaccharides were removed from the slides by rinsing with deionized water. The remaining N-hydroxysuccinimide (NHS) ester groups were blocked by placing slides in a solution containing 50 mM ethanolamine in PBST (137 mM NaCl, 13 mM Na2HPO4, 1.6 mM NaH2PO4, 2.7 mM KCl, 0.010% Tween-20) at 50° C. for 1.5 h. Slides were rinsed several times with deionized water, dried by centrifugation, and stored before use.
(§2) HS tetrasaccharide microarray binding assay and array slide processing. The slide was blocked with 10% BSA in TBST (4.0 mL) with gentle rocking at RT for 1 h, followed by submerging in TBST. This condition was empirically determined to reduce nonspecific binding of proteins to the microarray and to provide optimal signal-to-noise ratios. Next, 5.0 μL of the primary detection protein ([…], 0.50 μg/mL) solution was transferred to 2.5 mL of TBST w/1% BSA in a chamber and the slide was incubated with gentle shaking for 1 h at RT. The slide was then washed two times for 5 min each in TBST (4.0 mL) while gently rocking. After the washes, the slide was incubated with the appropriate biotinylated antibody ([…], 0.50 μg/mL) in 1% BSA in TBST solution (3.0 mL) with gentle rocking for 1 h. The slide was then washed two times for 5 min in TBST (5.0 mL) while gently rocking. Next, the slide was incubated with 4.0 mL of Alexa Fluor 647-conjugated streptavidin detection solution (1.0 μg/mL in TBST w/1% BSA) in the dark with gentle rocking for 1 h, washed with TBST (5.0 mL, two times) followed by PBS (45 mL, two times) and ddH2O (45 mL, two times), and then dried under a gentle stream of 0.2 micron-filtered air. For his-tagged FGF2, detection was accomplished with an AF647-labeled anti-his antibody. All incubations and washes were carried out at RT unless otherwise noted. The microarray was scanned and analyzed at 647 nm using an Agilent G2565CA Microarray Scanner, and fluorescence quantification was performed using ImageJ software with correction for local background. To ensure accurate signal quantification, the average signal intensity was calculated over a fixed area for all spots. Results were plotted with Prism 9 software at a single concentration as background corrected fluorescence values normalized to the compound with the highest signal. Bar graphs represent the mean±SD for each compound (50 μM) in nonuplicate. Each experiment was performed 2-3 times. Heat maps were generated in Excel with columns sorted by sulfation status of the amino positions and rows sorted by sulfation status of the 2-O- and 6-O-hydroxyl groups.

The next test has as its target T2, FGF4 (Homo sapiens, UniProt P08620).
T2 construct: purchased Peprotech
T2 sequence (P08620 31-206): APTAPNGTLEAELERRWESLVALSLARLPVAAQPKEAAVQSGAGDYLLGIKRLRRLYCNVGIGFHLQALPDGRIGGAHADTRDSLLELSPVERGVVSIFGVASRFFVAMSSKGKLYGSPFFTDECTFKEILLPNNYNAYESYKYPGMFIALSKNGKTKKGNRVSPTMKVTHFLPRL
Description: HS tetrasaccharide microarray binding assay, FGF4. The conditions noted are these: glycan microarray, compound 50 μM, normalized to the compound with greatest binding. As for the experimental part: as §1, §2

For the next test, the target named is T3, CXCL8 (interleukin-8) (Homo sapiens, UniProt P10145).
T3 construct: recombinant human IL-8 (CXCL8) (77 a.a.) (>95% purity); purchased Peprotech
T3 sequence (P10145 23-99 limits assumed): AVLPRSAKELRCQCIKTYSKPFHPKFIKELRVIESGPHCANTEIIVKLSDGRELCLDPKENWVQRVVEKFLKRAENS
Description: HS tetrasaccharide microarray binding assay, CXCL8. To be noted: glycan microarray, compound 50 μM, normalized to the compound with greatest binding. As for the experimental part:
as §1, §2

T1 sequence (P09038 143-288): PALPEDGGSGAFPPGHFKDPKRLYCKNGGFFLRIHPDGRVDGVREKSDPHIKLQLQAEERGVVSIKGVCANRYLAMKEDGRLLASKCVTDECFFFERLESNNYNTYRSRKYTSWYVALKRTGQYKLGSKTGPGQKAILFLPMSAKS

For the substance “GlcNAc6S-IdoA2S-GlcNAc6S-IdoA2S-R [Compound 61]”, at FGF2, the “relative binding of FGF2” value stood at 2%.

For “GlcNAc6S-IdoA2S-GlcNS6S-IdoA2S-R [Compound 62]”, at FGF4, the “relative binding of FGF4” value was found to be 27%. The “relative binding of FGF2” value on FGF2 is 28%.

Turning to “GlcNAc6S-IdoA2S-GlcNS6S-IdoA-R [Compound 58]”, the “relative binding of FGF4” value on FGF4 is reported as 10%. Further, on FGF2, the “FGF2 binding (in words)” value was “abolished FGF2 binding”.

Regarding “GlcNAc6S-IdoA2S-GlcNS-IdoA-R [Compound 42]”, on FGF2, the “FGF2 binding (in words)” value was “abolished FGF2 binding”.

On to “GlcNAc-IdoA2S-GlcNS6S-IdoA2S-R [Compound 46]”, for which the “relative binding of FGF4” value on FGF4 is given as 32%. The “relative binding of CXCL8” value on CXCL8 (interleukin-8) amounted to 47%.

As for “GlcNAc-IdoA2S-GlcNS6S-IdoA-R [Compound 34]”, the “FGF2 binding (in words)” value on FGF2 is listed as “abolished FGF2 binding”.

With “GlcNAc-IdoA2S-GlcNS-IdoA2S-R [Compound 26]”, the “relative binding of CXCL8” value on CXCL8 (interleukin-8) amounted to 43%.

For the substance “GlcNAc-IdoA2S-GlcNS-IdoA-R [Compound 14]”, the “FGF2 binding (in words)” value at FGF2 is listed as “abolished FGF2 binding”.

Take “GlcNS6S-IdoA2S-GlcNAc6S-IdoA2S-R [Compound 63]”: the “relative binding of FGF4” value on FGF4 came to 100%. The “relative binding of CXCL8” value on CXCL8 (interleukin-8) was found to be 75%. Further, the “relative binding of FGF2” value at FGF2 amounted to 70%.

With “GlcNS6S-IdoA2S-GlcNAc6S-IdoA-R [Compound 59]”, the “relative binding of FGF4” value at FGF4 is 83%. Further, the “relative binding of CXCL8” value at CXCL8 (interleukin-8) worked out at 53%.

On to “GlcNS6S-IdoA2S-GlcNAc-IdoA2S-R [Compound 55]”, for which the “relative binding of FGF4” value on FGF4 is recorded as 43%.

As for “GlcNS6S-IdoA2S-GlcNAc-IdoA-R [Compound 43]”, at FGF4, the “relative binding of FGF4” value is given as 16%.

Take “GlcNS6S-IdoA2S-GlcNS6S-IdoA2S-R [Compound 64]”: the “relative binding of FGF4” value on FGF4 amounted to 81%. Also, on FGF2, the “relative binding of FGF2” value is recorded as 100%.

In the case of “GlcNS6S-IdoA2S-GlcNS6S-IdoA-R [Compound 60]”, the “relative binding of FGF4” value at FGF4 stood at 38%. Besides, the “relative binding of CXCL8” value on CXCL8 (interleukin-8) is given as 43%. For the same substance, the “relative binding of FGF2” value on FGF2 is recorded as 39%.

Consider “GlcNS6S-IdoA2S-GlcNS-IdoA2S-R [Compound 56]”, for which the “relative binding of FGF4” value at FGF4 was 56%. Besides, at FGF2, the “relative binding of FGF2” value is recorded as 63%.

In the case of “GlcNS6S-IdoA-GlcNAc6S-IdoA2S-R [Compound 51]”, the “relative binding of FGF4” value on FGF4 came to 67%. Further, on CXCL8 (interleukin-8), the “relative binding of CXCL8” value came out at 47%. On FGF2, the “FGF2 binding (in words)” value was “abolished FGF2 binding” and the “relative binding of FGF2” value was determined as 3%.

Regarding “GlcNS6S-IdoA-GlcNAc6S-IdoA-R [Compound 39]”, on FGF4, the “relative binding of FGF4” value is reported as 43%. For the same substance, the “relative binding of CXCL8” value on CXCL8 (interleukin-8) came out at 17%. The “relative binding of FGF2” value on FGF2 is 2%.

“GlcNS6S-IdoA-GlcNAc-IdoA2S-R [Compound 31]”: the “FGF2 binding (in words)” value at FGF2 is reported as “abolished FGF2 binding”.

Consider “GlcNS6S-IdoA-GlcNS6S-IdoA2S-R [Compound 52]”, for which the “relative binding of CXCL8” value at CXCL8 (interleukin-8) is on record as 43%. The “relative binding of FGF2” value on FGF2 was 45%.

Regarding “GlcNS6S-IdoA-GlcNS6S-IdoA-R [Compound 40]”, the “relative binding of FGF4” value at FGF4 was found to be 52%. In addition, the “relative binding of FGF2” value at FGF2 is reported as 3%.

Consider “GlcNS-IdoA2S-GlcNAc6S-IdoA2S-R [Compound 47]”, for which, at FGF4, the “relative binding of FGF4” value was 95%. In addition, the “relative binding of CXCL8” value on CXCL8 (interleukin-8) is 100%.

On to “GlcNS-IdoA2S-GlcNAc6S-IdoA-R [Compound 35]”, for which, at FGF4, the “relative binding of FGF4” value came out at 44%. Moreover, on CXCL8 (interleukin-8), the “relative binding of CXCL8” value is given as 33%. In addition, the “relative binding of FGF2” value on FGF2 is given as 38%.

As for “GlcNS-IdoA2S-GlcNAc-IdoA2S-R [Compound 27]”, on FGF4, the “relative binding of FGF4” value was found to be 35%. Besides, the “relative binding of CXCL8” value on CXCL8 (interleukin-8) came out at 25%.

As to “GlcNS-IdoA2S-GlcNAc-IdoA-R [Compound 15]”, on FGF4, the “relative binding of FGF4” value was 16%.

As to “GlcNS-IdoA2S-GlcNS6S-IdoA2S-R [Compound 48]”, on FGF4, the “relative binding of FGF4” value is listed as 49%. Further, the “relative binding of CXCL8” value at CXCL8 (interleukin-8) stood at 61%. For the same substance, on FGF2, the “relative binding of FGF2” value turned out to be 77%.

Take “GlcNS-IdoA2S-GlcNS6S-IdoA-R [Compound 36]”: the “relative binding of CXCL8” value on CXCL8 (interleukin-8) is 49%.

As to “GlcNS-IdoA2S-GlcNS-IdoA2S-R [Compound 28]”, the “relative binding of FGF4” value on FGF4 is recorded as 42%. Besides, the “relative binding of CXCL8” value on CXCL8 (interleukin-8) is 63%.

Take “GlcNS-IdoA-GlcNAc6S-IdoA2S-R [Compound 23]”: the “relative binding of CXCL8” value at CXCL8 (interleukin-8) was 29%. Moreover, on FGF2, the “FGF2 binding (in words)” value is on record as “abolished FGF2 binding” and the “relative binding of FGF2” value stood at 2%.

On to “GlcNS-IdoA-GlcNAc6S-IdoA-R [Compound 11]”, for which, on CXCL8 (interleukin-8), the “relative binding of CXCL8” value came to 3.3%. Further, at FGF2, the “relative binding of FGF2” value worked out at 0.7%.

Turning to GlcNS-IdoA-GlcNAc-IdoA2S-R [Compound 7], on FGF2, the “FGF2 binding (in words)” value was “abolished FGF2 binding”.

Turning to “GlcNS-IdoA-GlcNS6S-IdoA2S-R [Compound 24]”, the “relative binding of CXCL8” value at CXCL8 (interleukin-8) was determined as 63%.
